From patent publication EP0109294A2, “Cephalosporin esters” (Takeda Chemical Industries, Ltd., priority 1982, dated 1984) come the findings set out here.

SMILES strings stand for the structures. Counter-ions that a name gives are not always drawn.

The series is described as follows: in vivo. Further details: species or system mice. As to conditions: mouse, 100 mg/kg; for Bio-availability / AUC / Plasma level of non-ester 2 hr: 120 min; for Plasma level of non-ester 0.25 hr / Plasma level of non-ester 0.5 hr / Plasma level of non-ester 1 hr / AUC / Plasma level of non-ester 2 hr: po; for Plasma level of non-ester 0.25 hr: 15 min; for Plasma level of non-ester 0.5 hr: 30 min; for Plasma level of non-ester 1 hr: 60 min. The method, then:
The compounds produced according to the Examples (Compound Nos. 2, 4, 6 and 8) and, as a reference control, pivaloyloxymethyl ester of compound (II) (hereinafter referred to as Compound A) are orally administered to mice at a common dose level of 100 mg/kg (as the non-ester, i.e. compound (II) per mouse). After administration, the plasma concentrations of compound (II) at 0.25, 0.5, 1.0 and 2.0 hours are determined by the cup assay method (using Proteus mirabilis Eb 313 as the test organism) and the area under plasma concentration- time curve (AUC) over 0 to 2 hours is calculated.
As a control, compound (II) is subcutaneously administered to mice at the same dose and the AUC is similarly calculated.

As to `CN(C)CCn1nnnc1SCC1=C(C(=O)OCOC(=O)C(C)(C)C)N2C(=O)[C@@H](NC(=O)Cc3csc(N)n3)[C@H]2SC1` [Compound A, pivaloyloxymethyl ester of compound (II), reference compound], the Bio-availability was 41.8, the “Plasma level of non-ester 0.25 hr” value was determined as 21000 ng/mL, the “Plasma level of non-ester 0.5 hr” value amounted to 16200 ng/mL and the “Plasma level of non-ester 1 hr” value stood at 6100 ng/mL. In addition, the AUC is 16200 ng·h/mL and the “Plasma level of non-ester 2 hr” value worked out at 600 ng/mL.

For the compound `CC(OC(=O)CC1CCCCC1)OC(=O)C1=C(CSc2nnnn2CCN(C)C)CS[C@@H]2[C@H](NC(=O)Cc3csc(N)n3)C(=O)N12` (stereo partly drawn) [Compound No. 2, 1-(Cyclohexylacetoxy)ethyl 7β-[2-(2-aminothiazol-4-yl)acetamido]-3-[[[1-(2-dimethylaminoethyl)-1H-tetrazol-5-yl]thio]methyl] ceph-3-em-4-carboxylate dihydrochloride], the Bio-availability was 107.7, the “Plasma level of non-ester 0.25 hr” value turned out to be 43900 ng/mL, the “Plasma level of non-ester 0.5 hr” value stood at 45200 ng/mL and the “Plasma level of non-ester 1 hr” value stood at 16400 ng/mL. Moreover, the AUC is 41800 ng·h/mL and the “Plasma level of non-ester 2 hr” value turned out to be 3100 ng/mL.

For `CC(OC(=O)C1=C(CSc2nnnn2CCN(C)C)CS[C@@H]2[C@H](NC(=O)Cc3csc(N)n3)C(=O)N12)OC(=O)C1CCCCC1` (stereo partly drawn) [Compound No. 4, 1-(Cyclohexanecarbonyloxy)ethyl 7β-[2-(2-amino-thiazol-4-yl)acetamido]-3-[[[1-(2-dimethylaminoethyl)-1H-tetrazol-5-yl]thio]methyl] ceph-3-em-4-carboxylate dihydrochloride], the Bio-availability is listed as 76.2, the “Plasma level of non-ester 0.25 hr” value came out at 43600 ng/mL, the “Plasma level of non-ester 0.5 hr” value is 31700 ng/mL and the “Plasma level of non-ester 1 hr” value was 8380 ng/mL. Also, the AUC came out at 29600 ng·h/mL and the “Plasma level of non-ester 2 hr” value stood at 1010 ng/mL.

For `CC(OC(=O)CC1CCCC1)OC(=O)C1=C(CSc2nnnn2CCN(C)C)CS[C@@H]2[C@H](NC(=O)Cc3csc(N)n3)C(=O)N12` (stereo partly drawn) [Compound No. 6, 1-(Cyclopentylacetoxy)ethyl 7β-[2-(2-aminothiazol-4-yl)acetamido]-3-[[[1-(2-dimethylaminoethyl)-1H-tetrazol-5-yl]thio]methyl] ceph-3-em-4-carboxylate dihydrochloride], the Bio-availability amounted to 82.2, the “Plasma level of non-ester 0.25 hr” value turned out to be 23200 ng/mL, the “Plasma level of non-ester 0.5 hr” value came out at 27200 ng/mL and the “Plasma level of non-ester 1 hr” value came out at 16900 ng/mL. Besides, the AUC amounted to 31900 ng·h/mL and the “Plasma level of non-ester 2 hr” value was 6460 ng/mL.

For the compound `CC(OC(=O)C1=C(CSc2nnnn2CCN(C)C)CS[C@@H]2[C@H](NC(=O)Cc3csc(N)n3)C(=O)N12)OC(=O)C1CCCC1` (stereo partly drawn) [Compound No. 8, 1-(Cyclopentanecarbonyloxy)ethyl 7β-[2-(2-aminothiazol-4-yl)acetamido]-3-[[[1-(2-dimethylaminoethyl)-1H-tetrazol-5-yl]thio]methyl] ceph-3-em-4-carboxylate dihydrochloride], the Bio-availability came out at 78.3, the “Plasma level of non-ester 0.25 hr” value came out at 42500 ng/mL, the “Plasma level of non-ester 0.5 hr” value was found to be 29900 ng/mL and the “Plasma level of non-ester 1 hr” value worked out at 10500 ng/mL. Also, the AUC came to 30400 ng·h/mL and the “Plasma level of non-ester 2 hr” value was found to be 1350 ng/mL.

Under “sc”, `CN(C)CCn1nnnc1SCC1=C(C(=O)O)N2C(=O)[C@@H](NC(=O)Cc3csc(N)n3)[C@H]2SC1` [compound (II), 7S-[2-(2-aminothiazol-4-yl)-acetamido]-3-[[[1-(2-dimethylaminoethyl)-1H-tetrazol-5-yl]thio]methyl]ceph-3-em-4-carboxylic acid, reference compound] registered an AUC at 2 h of 38800 ng·h/mL, a concentration at 0.25 h of 69200 ng/mL, a concentration at 0.5 h of 29000 ng/mL and a concentration at 1 h of 13200 ng/mL. Under “sc”, this compound had a concentration at 2 h of 1500 ng/mL and a Bio-availability of 100.

As usually defined, the AUC is the area under the concentration-time curve, a measure of exposure. Lower therefore signals low exposure.
